“Also recorded” adds a separate entry of the source. Read-outs that look alike come from different tables or passages of the source.
Tests used:
[1] = Metabolic stability in human liver microsomes; assay type: in vitro ADME; settings: for microsomal CLint / Half-life in human liver microsomes (single determinations): Table 5
Method: The prodrugs were incubated with the human liver microsomes at 37° C. as an indication of the susceptibility of prodrugs to undergo bioconversion in the liver. The reactions were initiated by adding 1.5 μL of the prodrug stock solution (10 mg/mL in DMSO) to a preheated solution consisting of 748.5 μL potassium phosphate buffer solution (20 mM, pH 7.4, ionic strength 0.5), 200 μL NADPH, and 50 μLhuman liver microsomes (mixed gender, 0.5 ml at 20 mg/mL). The solutions were stirred at a constant temperature of 37° C. At appropriate intervals, 50 μLof samples were mixed with 100 μL of ice-cold MeOH. After immediate mixing and centrifugation (5 min at 14.000 rpm), the resulting clear supernatant was analyzed for the remaining prodrug by HPLC.

[2] = system: reconstructed human oral buccal epithelium cells (SkinEthic HOE, TR146 cells); assay: In vitro buccal permeability (SkinEthic human oral epithelium); assay type: in vitro ADME; settings: for Flux (buccal) / Flux compared with parent cannabinoid / Species making up the buccal flux / formation of parent cannabinoid: Table 4; for Flux (buccal): suspension ca. 2 mg/ml in 5% EtOH/phosphate buffer pH 6.8, 37° C., receiver 15% HP-β-cyclodextrin; for Flux compared with parent cannabinoid: buccal flux relative to parent; for Species making up the buccal flux / formation of parent cannabinoid / Species making up the buccal flux (parent vs intact prodrug): remark in flux cell; for Buccal permeation compared with parent cannabinoid (in words): 5% ethanol suspension; for Species making up the buccal flux (parent vs intact prodrug): Table 2
Method: The in vitro permeability studies were carried out in commercial reconstructed human oral buccal epithelium cells (SkinEthic™ human oral epithelium). The SkinEthic™ HOE model is composed of TR146 cells (derived from a squamous cell carcinoma of the buccal mucosa) cultivated on an inert polycarbonate filter at the air-liquid interface in a chemically defined medium. This model forms an epithelial tissue devoid of stratum corneum, resembling histologically to the mucosa of the oral cavity.
Upon receiving the cells, each insert (0.5 cm^2 or 0.33 cm^2) was placed in a plate containing 800 μL fresh medium at room temperature. The culture dishes were placed in the incubator at 37° C., 5% CO2, and saturated humidity overnight. Next day, the inserts were placed in a plate containing 800 μL 15% HP-β-cyclodextrin in H2O. The prodrugs were dissolved in 100% EtOH (5% (V/V) final conc.), and then sodium phosphate buffer solution (50 mM, pH 6.8, isotonic, 37° C.) was added (95% (V/V) final conc.). 400 μL of the prodrugs were applied as suspensions (ca. 2 mg/ml). The plates were stirred gently at 37° C. At appropriate intervals, the receptor compartment was sampled (100 μL) and replenished with fresh […] solution each time. The samples were mixed with 100 μL of MeOH, and analyzed for drug (both the parent cannabinoid and the prodrug) by HPLC-MS.
The buccal flux-values for the rate of delivery of drugs were determined from Fick's law of diffusion.

[3] = Stability in 80% human plasma (serum); assay type: in vitro ADME; settings: 80% human serum (pH 7.4) at 37° C.; for half-life: human, serum
Method: The rates of the degradation of the prodrugs were determined in 80% human serum (pH 7.4) at 37° C. as an indication of the susceptibility of prodrugs to undergo bioconversion after reaching the circulation. The reactions were initiated by adding the first 10 μL of the prodrug stock solution (10 mg/mL in DMSO) to 200 μL preheated sodium phosphate buffer solution (50 mM, pH 7.4, ionic strength 0.5), and then adding 800 μL preheated human serum. The solutions were stirred at a constant temperature of 37° C. At appropriate intervals, 50 μL of samples were mixed with 150 μL of ice-cold MeOH. After immediate mixing and centrifugation (5 min at 14.000 rpm), the resulting clear supernatant was analyzed for the remaining prodrug by HPLC.

[4] = Stability in aqueous solutions (sodium phosphate buffer, 37° C.); assay type: physicochemical; settings: for half-life: buffer; for Half-life in aqueous solution: Table 5
Method: […] The solutions of prodrugs were prepared by adding 10 μL of stock solution (10 mg/mL in DMSO) to the preheated buffer. The solutions were stirred at a constant temperature of 37° C. At appropriate intervals, 75 μL of samples were mixed with 75 μL of MeOH and analyzed for remaining prodrug by HPLC.
The pseudo-first-order rate constants (kobs) and half-lives (t1/2) for the degradation of the prodrugs were determined from the linear slopes of the plots by taking the logarithm of the remaining prodrug over time. Equations: kobs=slope/−2.303 and t1/2=ln2/kobs.

[5] = both sexes, human, microsomes, pH 7.4, Table 5, 37° C., NADPH, read-out: Half-life in human liver microsomes (single determinations) (converted)
[6] = both sexes, human, microsomes, pH 7.4, Table 5, average of determinations, read-out: Half-life in human liver microsomes (avg.) (converted)
[7] = both sexes, human, microsomes, pH 7.4
[8] = pH 6.8, Table 3, aqueous buffer pH 6.8, 37° C., read-out: Half-life in aqueous solution (converted)
[9] = both sexes, human, microsomes, pH 7.4, Table 3, 37° C., NADPH, read-out: Half-life in human liver microsomes (single determinations) (converted)
[10] = aqueous buffer pH 6.8, 37° C., single determinations
[11] = pH 6.8, Table 5, aqueous buffer pH 6.8, 37° C., single determinations, read-out: Half-life in aqueous solution (converted)

CCCCCc1cc(O)c2c(c1)OC(C)(CCC=C(C)C)C=C2 (stereo not shown) [CBC, Cannabichromene, reference compound] gave a half-life [1, 5] of 1.93 h, a half-life [1, 6] of 1.86 h and a microsomal CLint [1, 7] of 6.21 µL/min/mg. The “Flux (buccal)” value [2] was 27.87 ± 2.46 nmol/cm^2/h.

For CCCCCc1cc(OC(=O)N2CCN(C)CC2)c2c(c1)OC(C)(CCC=C(C)C)C=C2 (stereo not shown) [CBCp1, 2-methyl-2-(4-methylpent-3-en-1-yl)-7-pentyl-2H-chromen-5-yl4-methylpiperazine-1-carboxylate], the Half-life in serum ([3]; Table 5) was “stable for 6 hrs”, the Half-life in human liver microsomes (single determinations) ([1]; 37° C., NADPH) was 3.13 h and the half-life at 15 µg/mL [1, 5] was 4.18 h. The half-life at 15 µg/mL [1, 6] was 3.65 h, the “Flux compared with parent cannabinoid” value [2] was “No improvement” and the “Species making up the buccal flux / formation of parent cannabinoid” value [2] was “NO significant formation of CBC”. For the same compound, the “Flux (buccal)” value [2] was 15.88 ± 0.70 (prodrug) nmol/cm^2/h.

With CCCCCc1cc(OC(=O)N2CCNCC2)c2c(c1)OC(C)(CCC=C(C)C)C=C2 (stereo not shown) [CBCp3, 2-methyl-2-(4-methylpent-3-en-1-yl)-7-pentyl-2H-chromen-5-yl piperazine-1-carboxylate] the Half-life in serum ([3]; Table 5) was “stable for 6 hrs”, the half-life at 15 µg/mL [1, 6] was 14.9 h and the “Flux compared with parent cannabinoid” value [2] was “No improvement”. The “Species making up the buccal flux / formation of parent cannabinoid” value [2] was “NO significant formation of CBC” and the “Flux (buccal)” value [2] was 5.74 ± 0.51 (prodrug) nmol/cm^2/h.

With C=C(C)[C@@H]1CCC(C)=C[C@H]1c1c(O)cc(CCCCC)cc1OC(=O)CN1CCN(C)CC1 [CBDp7, (1′R,2′R)-6-hydroxy-5′-methyl-4-pentyl-2′-(prop-1-en-2-yl)-1′,2′,3′,4′-tetrahydro-[1,1′-biphenyl]-2-yl 2-(4-methylpiperazin-1-yl)acetate] the half-life [4, 8] was 0.16 h, the half-life ([3]; pH 7.4, Table 3) was 2.6 h and the half-life [1, 9] was 0.12 h. The “Buccal permeation compared with parent cannabinoid (in words)” value [2] was “better than that of CBD” and the “Species making up the buccal flux (parent vs intact prodrug)” value [2] was 1/3 CBD & 2/3.

With C=C(C)[C@@H]1CCC(C)=C[C@H]1c1c(OC(=O)N2CCN(C)CC2)cc(CCCCC)cc1OC(=O)N1CCN(C)CC1 [CBDp14, (1′R,2′R)-5′-methyl-4-pentyl-2′-(prop-1-en-2-yl)-1′,2′,3′,4′-tetrahydro-[1,1′-biphenyl]-2,6-diyl bis(4-methylpiperazine-1-carboxylate)] the half-life ([4]; Table 3 footnote f, 20% of ethanol in the solution, read-out: Half-life in aqueous solution with ethanol) was 50 h, the half-life [4, 8] was 2.5 h and the Half-life in serum ([3]; Table 3) was “stable”. The half-life at 15 µg/mL [1, 9] was 0.86 h, the “Buccal permeation compared with parent cannabinoid (in words)” value [2] was “better than that of CBD; also recorded: significantly improved permeability compared to CBD” and the “Species making up the buccal flux (parent vs intact prodrug)” value [2] was “only intact prodrug”.

For C=C(C)[C@@H]1CCC(C)=C[C@H]1c1c(O)cc(CCCCC)cc1OC(=O)N1CCCCC1 [CBDp17, (1′R,2′R)-6-hydroxy-5′-methyl-4-pentyl-2′-(prop-1-en-2-yl)-1′,2′,3′,4′-tetrahydro-[1,1′-biphenyl]-2-yl piperidine-1-carboxylate], the “Species making up the buccal flux (parent vs intact prodrug)” value [2] was “only intact prodrug”.

For C=C(C)[C@@H]1CCC(C)=C[C@H]1c1c(OC(=O)N2CCCCC2)cc(CCCCC)cc1OC(=O)N1CCCCC1 [CBDp18, (1′R,2′R)-5′-methyl-4-pentyl-2′-(prop-1-en-2-yl)-1′,2′,3′,4′-tetrahydro-[1,1′-biphenyl]-2,6-diyl bis(piperidine-1-carboxylate)], the “Species making up the buccal flux (parent vs intact prodrug)” value [2] was “only intact prodrug”.

In the case of C=C(C)[C@@H]1CCC(C)=C[C@H]1c1c(O)cc(CCCCC)cc1OC(=O)N1CCNCC1 [CBDp21, (1′R,2′R)-6-hydroxy-5′-methyl-4-pentyl-2′-(prop-1-en-2-yl)-1′,2′,3′,4′-tetrahydro-[1,1′-biphenyl]-2-yl piperazine-1-carboxylate], the “Buccal permeation compared with parent cannabinoid (in words)” value [2] is reported as “better than that of CBD” and the “Species making up the buccal flux (parent vs intact prodrug)” value [2] is reported as “only intact prodrug”.

For C=C(C)[C@@H]1CCC(C)=C[C@H]1c1c(OC(=O)C2CCNC2)cc(CCCCC)cc1OC(=O)C1CCNC1 (stereo partly drawn) [CBDp24, (1′R,2′R)-5′-methyl-4-pentyl-2′-(prop-1-en-2-yl)-1′,2′,3′,4′-tetrahydro-[1,1′-biphenyl]-2,6-diyl bis(pyrrolidine-3-carboxylate)], the “Stability in standard and aqueous solutions (in words)” value ([4]; Table 3 footnote e) was “^e Could not be determined due to fast degradation in standard and aqueous solutions,”, the “Buccal permeation compared with parent cannabinoid (in words)” value [2] was “better than that of CBD; also recorded: superior when compared to CBD and other prodrugs” and the “Species making up the buccal flux (parent vs intact prodrug)” value [2] was “mostly intact”.

Compound CCCCCc1cc(O)c(C/C=C(\C)CCC=C(C)C)c(O)c1 [CBG, Cannabigerol, reference compound] has a microsomal CLint at 15 µg/mL [1, 7] of 7.18 µL/min/mg, a half-life at 15 µg/mL ([1]; both sexes, human, microsomes, pH 7.4, Half-life in human liver microsomes (avg.)) of 1.61 h and a half-life at 15 µg/mL ([1]; both sexes, human, microsomes, pH 7.4, Half-life in human liver microsomes (single determinations)) of 1.79 h. For the same compound, the “Kobs (based on microsomes Half-life)” value ([1]; human, microsomes) was 0.43.

In the case of CCCCCc1cc(O)c(C/C=C(\C)CCC=C(C)C)c(OC(=O)N2CCN(C)CC2)c1 [CBGp2, (E)-2-(3,7-dimethylocta-2,6-dien-1-yl)-3-hydroxy-5-pentylphenyl 4-methylpiperazine-1-carboxylate], the Half-life in aqueous solution [4, 10] is reported as 1.17 h, the half-life [4, 11] is reported as 1.14 h and the Half-life in serum ([3]; Table 5) is reported as “No degradation”. For the same compound, the Half-life in human liver microsomes (single determinations) ([1]; 37° C., NADPH) was 1.73 h, the half-life at 15 µg/mL [1, 5] was 1.62 h and the half-life at 15 µg/mL [1, 6] was 1.68 h. For the same compound, the “Flux compared with parent cannabinoid” value [2] was “No improvement”, the “Species making up the buccal flux / formation of parent cannabinoid” value [2] was “NO significant formation of CBG” and the “Flux (buccal)” value [2] was 4.45 ± 0.45 (prodrug) nmol/cm^2/h.

For CCCCCc1cc(O)c2c(c1)OC(C)(C)[C@@H]1CCC(C)=C[C@@H]21 [THC, Δ9-Tetrahydrocannabinol, reference compound], the half-life [1, 5] was 0.17 h, the half-life [1, 6] was 0.18 h and the microsomal CLint [1, 7] was 64.2 µL/min/mg. For the same compound, the “Flux (buccal)” value [2] was 19.65 ± 0.36 nmol/cm^2/h.

Work on CCCCCc1cc(OC(=O)C2CCNC2)c2c(c1)OC(C)(C)[C@@H]1CCC(C)=C[C@@H]21 (stereo partly drawn) [THCp2, (6aR,10aR)-6,6,9-trimethyl-3-pentyl-6a,7,8,10a-tetrahydro-6H-benzo[c]chromen-1-yl pyrrolidine-3-carboxylate] yielded a Half-life in aqueous solution [4, 10] of 0.46 h, a half-life [4, 11] of 0.49 h and a Half-life in serum ([3]; Table 5) of 0.43 h. It also gave a half-life ([3]; pH 7.4, Table 5) of 0.42 h, a Half-life in human liver microsomes (single determinations) ([1]; 37° C., NADPH) of 2.79 h and a half-life [1, 5] of 2.09 h. It also gave a half-life [1, 6] of 2.44 h.
